# Several values for one entry are separate records, joined by “and”; a condition that tells them apart may be missing. Equal values may be shown once. Numbers after ± are expanded uncertainties.
# Conditions: for viscosity / mass density / speed of sound: 102 kPa, Liquid; for viscosity: Concentric cylinders viscometry; for mass density: Vibrating tube method; for speed of sound: Frequency=3 MHz, Single path-length method; for surface tension liquid-gas: Pendant drop shape
SMILES,viscosity (253.15 K) [mPa·s],speed of sound (288.15 K) [m/s],mass density (288.15 K),viscosity (293.15 K) [mPa·s],speed of sound (293.15 K) [m/s],mass density (293.15 K),speed of sound (298.15 K) [m/s],mass density (298.15 K),viscosity (303.15 K) [mPa·s],speed of sound (303.15 K) [m/s],mass density (303.15 K),viscosity (313.15 K) [mPa·s],speed of sound (313.15 K) [m/s],mass density (313.15 K),viscosity (323.15 K) [mPa·s],speed of sound (323.15 K) [m/s],mass density (323.15 K),viscosity (333.15 K) [mPa·s],speed of sound (333.15 K) [m/s],mass density (333.15 K),further results
"CC(CC(C)(C)C)CC(C)(C)CC(C)(C)C (stereo unspecified) [2,2,4,4,6,8,8-heptamethylnonane]",14.1 ± 0.1,1305.1 ± 1,787.84 ± 0.52 kg/m3 and 787.76 ± 0.52 kg/m3,3.73 ± 0.03,1286 ± 1,784.51 ± 0.52 kg/m3 and 784.4 ± 0.52 kg/m3,1267.1 ± 1,781.15 ± 0.52 kg/m3 and 781.05 ± 0.52 kg/m3,2.96 ± 0.03,1248.1 ± 1,777.8 ± 0.52 kg/m3 and 777.7 ± 0.52 kg/m3,2.4 ± 0.02,1211.8 ± 1,771.09 ± 0.52 kg/m3 and 770.99 ± 0.52 kg/m3,1.98 ± 0.02,1176.1 ± 1,764.36 ± 0.52 kg/m3 and 764.27 ± 0.52 kg/m3,1.66 ± 0.02,1141.3 ± 1,757.62 ± 0.52 kg/m3 and 757.53 ± 0.52 kg/m3,mass density (253.15 K): 811.5 ± 2 kg/m3 and 811.4 ± 2 kg/m3; surface tension liquid-gas (295 K): 24.2 ± 0.3 mN/m
CCCCc1ccccc1 [butylbenzene],2.36 ± 0.06,1373.7 ± 0.8,864.7 ± 0.31 kg/m3,1.04 ± 0.02,1353.8 ± 0.8,860.69 ± 0.31 kg/m3,1334.1 ± 0.8,856.68 ± 0.31 kg/m3,0.891 ± 0.021,1314.5 ± 0.8,852.65 ± 0.31 kg/m3,0.773 ± 0.021,1276.1 ± 0.8,844.6 ± 0.31 kg/m3,0.679 ± 0.021,1238.4 ± 0.8,836.51 ± 0.31 kg/m3,0.601 ± 0.021,1201.7 ± 0.8,828.38 ± 0.31 kg/m3,mass density (253.15 K): 892.8 ± 2 kg/m3; surface tension liquid-gas (295 K): 28.8 ± 0.3 mN/m
CCCCC1CCCCC1 [butylcyclohexane],3.08 ± 0.06,1348.8 ± 1.2,803.07 ± 0.73 kg/m3,1.32 ± 0.02,1328.3 ± 1.2,799.33 ± 0.73 kg/m3,1308.1 ± 1.2,795.57 ± 0.73 kg/m3,1.11 ± 0.02,1288 ± 1.2,791.81 ± 0.73 kg/m3,0.95 ± 0.021,1248.6 ± 1.2,784.27 ± 0.73 kg/m3,0.826 ± 0.021,1210.1 ± 1.2,776.71 ± 0.73 kg/m3,0.729 ± 0.021,1172.6 ± 1.2,769.1 ± 0.73 kg/m3,mass density (253.15 K): 829.9 ± 2 kg/m3; surface tension liquid-gas (294.5 K): 26.6 ± 0.4 mN/m
CCCCCCCCCCCC [dodecane],–,1317.4 ± 1,752.41 ± 0.53 kg/m3,1.51 ± 0.02,1297.9 ± 1,748.79 ± 0.53 kg/m3,1278.7 ± 1,745.16 ± 0.53 kg/m3,1.25 ± 0.02,1259.5 ± 1,741.53 ± 0.53 kg/m3,1.06 ± 0.02,1221.7 ± 1,734.25 ± 0.53 kg/m3,0.916 ± 0.021,1184.5 ± 1,726.94 ± 0.53 kg/m3,0.798 ± 0.021,1148.2 ± 1,719.59 ± 0.53 kg/m3,surface tension liquid-gas (295 K): 24.9 ± 0.3 mN/m
